Paper PMC6811774, “Potent, selective, and subunit‐dependent activation of TRPC5 channels by a xanthine derivative” (British Journal of Pharmacology, 2019)

Key:
Assay type in all cases: cell-based
TRPC4 channels = molecular target: T1, TRPC4 channels (Homo sapiens, UniProt Q9UBN4); assay: Excised outside-out patch-clamp, HEK 293 cells transiently expressing hTRPC4; conditions: 30 nM EA; at 3 to 100 nM AM237
T1 construct: expressed in transfected cells; host or cells: HEK 293 (transient)
T1 sequence (Q9UBN4 1-977): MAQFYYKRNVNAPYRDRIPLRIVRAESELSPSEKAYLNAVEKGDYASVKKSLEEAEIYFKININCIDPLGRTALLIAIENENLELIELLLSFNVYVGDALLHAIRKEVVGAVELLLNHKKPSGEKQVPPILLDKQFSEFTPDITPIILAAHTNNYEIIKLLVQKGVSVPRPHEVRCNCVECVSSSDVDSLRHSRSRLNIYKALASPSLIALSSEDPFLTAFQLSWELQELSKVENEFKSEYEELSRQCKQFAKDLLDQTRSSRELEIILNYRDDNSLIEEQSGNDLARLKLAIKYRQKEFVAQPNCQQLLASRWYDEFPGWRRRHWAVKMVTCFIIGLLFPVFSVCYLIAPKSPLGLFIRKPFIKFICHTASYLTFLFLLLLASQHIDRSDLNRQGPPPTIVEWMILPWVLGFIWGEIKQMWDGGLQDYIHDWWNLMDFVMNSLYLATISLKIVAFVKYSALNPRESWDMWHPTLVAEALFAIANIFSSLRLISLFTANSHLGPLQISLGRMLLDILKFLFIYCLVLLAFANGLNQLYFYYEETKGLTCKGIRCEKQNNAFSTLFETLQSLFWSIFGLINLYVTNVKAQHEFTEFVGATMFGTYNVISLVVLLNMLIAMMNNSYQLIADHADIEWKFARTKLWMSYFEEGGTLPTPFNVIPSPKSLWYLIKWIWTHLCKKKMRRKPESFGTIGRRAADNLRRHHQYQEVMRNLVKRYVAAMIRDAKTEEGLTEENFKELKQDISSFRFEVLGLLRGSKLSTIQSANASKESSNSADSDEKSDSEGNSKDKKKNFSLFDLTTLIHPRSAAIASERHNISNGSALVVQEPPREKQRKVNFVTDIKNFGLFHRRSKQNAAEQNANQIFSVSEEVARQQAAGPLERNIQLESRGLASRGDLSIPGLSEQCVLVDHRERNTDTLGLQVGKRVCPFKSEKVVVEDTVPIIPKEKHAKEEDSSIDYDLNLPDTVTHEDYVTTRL
Protocol: For electrophysiology experiments, cells were plated at a low density of 20–30% onto round or square glass coverslips (13 mm diameter or 5 × 5 mm), and TRPC expression in HEK T‐REx was induced with 1 μg·ml^−1 tetracycline 24 hr before experimentation. Experiments were carried out at room temperature. Extracellular solution consisted of SBS. Patch‐clamp recordings were performed in whole‐cell mode (Figure S7) and in excised outside‐out patch mode under voltage clamp at room temperature using 2–4 MΩ patch pipettes fabricated from borosilicate glass capillaries with an outside diameter of 1 mm and an inside diameter of 0.58 mm (Harvard Apparatus). The voltage protocol comprised voltage ramps applied from −100 to +100 mV every 10 s from a holding potential of 0 mV. The patch‐clamp currents were recorded using Axopatch 200B or HEKA EPC‐800 amplifiers, digitized by a Digidata 1440 or PCI6229 (National Instruments Japan, Tokyo, Japan) and recorded to a computer using pCLAMP10 (Molecular Devices) or WinWCPV4.5 (developed by Dr John Dempster, University of Strathclyde, UK). The data were filtered at 1 kHz and analysed offline using Clampfit 10.2 software or WinWCPV4.5 and Origin 9.1 software (OriginLab, Northampton, MA). […]

[1] = molecular target: T2, TRPC5:C5 channels (hTRPC5) (Homo sapiens, UniProt Q9UL62); assay: Excised outside-out patch-clamp, hTRPC5-expressing HEK (Tet+) T-REx cells
T2 construct: expressed in transfected cells
T2 sequence (Q9UL62 1-973): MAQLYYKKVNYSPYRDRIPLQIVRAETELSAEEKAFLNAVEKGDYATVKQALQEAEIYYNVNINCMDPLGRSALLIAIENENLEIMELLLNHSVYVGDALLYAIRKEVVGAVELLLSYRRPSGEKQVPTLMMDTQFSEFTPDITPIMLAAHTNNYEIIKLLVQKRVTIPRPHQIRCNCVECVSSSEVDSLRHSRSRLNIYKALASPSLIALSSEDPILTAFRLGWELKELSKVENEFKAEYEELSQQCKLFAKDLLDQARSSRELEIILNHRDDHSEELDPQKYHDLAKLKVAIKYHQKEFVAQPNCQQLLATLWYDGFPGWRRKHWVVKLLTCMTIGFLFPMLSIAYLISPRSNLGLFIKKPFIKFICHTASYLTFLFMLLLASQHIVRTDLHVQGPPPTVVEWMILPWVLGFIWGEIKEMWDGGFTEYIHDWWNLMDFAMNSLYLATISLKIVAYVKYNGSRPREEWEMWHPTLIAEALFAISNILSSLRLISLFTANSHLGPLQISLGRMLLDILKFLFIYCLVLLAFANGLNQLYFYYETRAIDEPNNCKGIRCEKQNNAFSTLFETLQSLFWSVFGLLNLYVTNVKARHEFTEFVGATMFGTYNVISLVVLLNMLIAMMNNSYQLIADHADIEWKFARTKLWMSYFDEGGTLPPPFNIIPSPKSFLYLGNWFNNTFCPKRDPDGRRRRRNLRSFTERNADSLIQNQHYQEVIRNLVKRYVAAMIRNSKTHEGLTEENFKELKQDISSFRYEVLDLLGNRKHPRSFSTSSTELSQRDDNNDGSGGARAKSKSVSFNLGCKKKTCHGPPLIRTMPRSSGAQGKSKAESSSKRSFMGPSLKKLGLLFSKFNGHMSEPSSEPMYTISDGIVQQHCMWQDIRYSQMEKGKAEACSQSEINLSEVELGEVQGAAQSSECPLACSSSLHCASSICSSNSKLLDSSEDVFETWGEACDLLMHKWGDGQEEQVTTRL
Protocol: For electrophysiology experiments, cells were plated at a low density of 20–30% onto round or square glass coverslips (13 mm diameter or 5 × 5 mm), and TRPC expression in HEK T‐REx was induced with 1 μg·ml^−1 tetracycline 24 hr before experimentation. Experiments were carried out at room temperature. Extracellular solution consisted of SBS. Patch‐clamp recordings were performed in whole‐cell mode (Figure S7) and in excised outside‐out patch mode under voltage clamp at room temperature using 2–4 MΩ patch pipettes fabricated from borosilicate glass capillaries with an outside diameter of 1 mm and an inside diameter of 0.58 mm (Harvard Apparatus). The voltage protocol comprised voltage ramps applied from −100 to +100 mV every 10 s from a holding potential of 0 mV. The patch‐clamp currents were recorded using Axopatch 200B or HEKA EPC‐800 amplifiers, digitized by a Digidata 1440 or PCI6229 (National Instruments Japan, Tokyo, Japan) and recorded to a computer using pCLAMP10 (Molecular Devices) or WinWCPV4.5 (developed by Dr John Dempster, University of Strathclyde, UK). The data were filtered at 1 kHz and analysed offline using Clampfit 10.2 software or WinWCPV4.5 and Origin 9.1 software (OriginLab, Northampton, MA). The bath solution consisted of SBS and the pipette solution (intracellular solution) contained 145‐mM CsCl, 2‐mM MgCl2, 10‐mM HEPES, 1‐mM EGTA (free acid), 5‐mM ATP (sodium salt), and 0.1‐mM NaGTP, titrated to pH 7.2 with CsOH. All solutions were filtered using a 0.2 μm filter (Sartorius, UK). Comparisons of peak current sizes mediated by EA‐activated TRPC1/4/5 channels in whole cells and excised outside‐out patches are provided in Figure S12.

TRPV4 = molecular target: T3, TRPV4 (Homo sapiens, UniProt Q9HBA0); assay: [Ca2+]i selectivity assay, CHO cells stably expressing hTRPV4, 4α-PDD activation; conditions: 300 nM AM237; 5 μM 4α-PDD
T3 construct: expressed in transfected cells
T3 sequence (Q9HBA0 whole entry): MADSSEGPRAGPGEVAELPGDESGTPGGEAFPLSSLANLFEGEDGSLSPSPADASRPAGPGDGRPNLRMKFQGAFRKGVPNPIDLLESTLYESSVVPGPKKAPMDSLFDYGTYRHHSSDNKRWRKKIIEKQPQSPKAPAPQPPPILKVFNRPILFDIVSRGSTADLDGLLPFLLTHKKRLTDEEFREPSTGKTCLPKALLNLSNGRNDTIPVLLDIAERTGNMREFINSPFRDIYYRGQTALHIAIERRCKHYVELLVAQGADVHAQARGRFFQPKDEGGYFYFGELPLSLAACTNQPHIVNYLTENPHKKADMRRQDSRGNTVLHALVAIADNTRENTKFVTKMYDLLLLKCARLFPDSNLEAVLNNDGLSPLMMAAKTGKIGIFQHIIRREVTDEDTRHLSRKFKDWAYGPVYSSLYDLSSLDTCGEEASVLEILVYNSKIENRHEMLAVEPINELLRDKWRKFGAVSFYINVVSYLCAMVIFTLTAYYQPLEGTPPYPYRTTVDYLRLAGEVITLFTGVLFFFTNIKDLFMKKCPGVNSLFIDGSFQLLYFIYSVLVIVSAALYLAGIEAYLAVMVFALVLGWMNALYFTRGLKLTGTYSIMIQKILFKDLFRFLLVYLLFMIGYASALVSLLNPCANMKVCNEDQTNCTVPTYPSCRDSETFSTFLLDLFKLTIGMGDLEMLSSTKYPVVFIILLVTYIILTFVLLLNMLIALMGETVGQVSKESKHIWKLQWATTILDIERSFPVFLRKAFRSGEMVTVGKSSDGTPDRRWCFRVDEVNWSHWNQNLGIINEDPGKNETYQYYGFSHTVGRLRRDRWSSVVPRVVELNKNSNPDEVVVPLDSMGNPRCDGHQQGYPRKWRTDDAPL

TRPM2 = molecular target: T4, TRPM2 (Homo sapiens, UniProt O94759); assay: [Ca2+]i selectivity assay, (Tet+) HEK T-REx cells expressing TRPM2, H2O2 activation; conditions: 300 nM AM237; 1 mM H2O2
T4 construct: expressed in transfected cells
T4 sequence (O94759 whole entry): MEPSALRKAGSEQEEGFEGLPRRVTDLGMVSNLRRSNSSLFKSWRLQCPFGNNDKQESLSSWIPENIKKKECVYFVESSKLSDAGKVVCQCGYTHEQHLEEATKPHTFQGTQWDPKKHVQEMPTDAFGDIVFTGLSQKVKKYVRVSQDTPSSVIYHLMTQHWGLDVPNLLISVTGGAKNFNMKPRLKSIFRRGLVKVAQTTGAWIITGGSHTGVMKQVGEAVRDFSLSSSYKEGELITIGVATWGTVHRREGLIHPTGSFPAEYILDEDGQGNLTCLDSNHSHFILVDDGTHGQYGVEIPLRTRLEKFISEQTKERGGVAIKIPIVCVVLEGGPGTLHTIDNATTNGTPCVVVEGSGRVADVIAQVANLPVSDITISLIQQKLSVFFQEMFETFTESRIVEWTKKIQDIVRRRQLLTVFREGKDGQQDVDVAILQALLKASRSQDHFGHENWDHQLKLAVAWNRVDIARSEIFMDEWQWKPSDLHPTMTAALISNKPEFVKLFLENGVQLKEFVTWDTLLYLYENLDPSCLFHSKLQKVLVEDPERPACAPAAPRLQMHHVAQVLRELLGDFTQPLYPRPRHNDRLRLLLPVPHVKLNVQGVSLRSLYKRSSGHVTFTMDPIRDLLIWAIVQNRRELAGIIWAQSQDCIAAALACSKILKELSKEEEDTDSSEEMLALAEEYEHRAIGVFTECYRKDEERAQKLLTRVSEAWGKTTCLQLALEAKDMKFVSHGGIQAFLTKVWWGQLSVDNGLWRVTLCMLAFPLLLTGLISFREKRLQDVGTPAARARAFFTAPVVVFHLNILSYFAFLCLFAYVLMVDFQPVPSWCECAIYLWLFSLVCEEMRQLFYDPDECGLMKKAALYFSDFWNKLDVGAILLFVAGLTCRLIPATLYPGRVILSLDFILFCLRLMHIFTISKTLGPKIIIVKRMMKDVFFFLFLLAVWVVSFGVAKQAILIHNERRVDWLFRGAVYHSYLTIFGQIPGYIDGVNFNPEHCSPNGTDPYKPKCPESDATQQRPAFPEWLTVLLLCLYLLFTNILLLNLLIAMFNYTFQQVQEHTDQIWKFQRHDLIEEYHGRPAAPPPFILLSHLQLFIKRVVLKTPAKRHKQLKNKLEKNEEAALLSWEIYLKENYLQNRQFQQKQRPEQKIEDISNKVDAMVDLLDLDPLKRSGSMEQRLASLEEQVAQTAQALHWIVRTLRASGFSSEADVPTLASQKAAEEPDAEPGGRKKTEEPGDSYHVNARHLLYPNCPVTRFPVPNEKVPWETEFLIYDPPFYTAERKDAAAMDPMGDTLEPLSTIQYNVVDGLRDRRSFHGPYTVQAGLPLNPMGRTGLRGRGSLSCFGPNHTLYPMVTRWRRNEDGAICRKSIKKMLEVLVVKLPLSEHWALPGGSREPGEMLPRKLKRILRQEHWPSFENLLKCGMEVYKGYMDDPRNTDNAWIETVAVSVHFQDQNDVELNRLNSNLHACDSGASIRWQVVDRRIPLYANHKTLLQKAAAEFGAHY

Cn1c(=O)n(CCCO)c(=O)c2c1nc(Oc1ccc(Cl)c(OC(F)(F)F)c1)n2Cc1ccc(Cl)cc1 [AM237]
Inhibition of currents induced by EA (TRPC4 channels): full inhibition
Effect on inward and outward currents induced by EA ([1]; 30 nM EA, outside-out patch): partially suppressed
Amplitude of outward current response compared to response induced by 30-nM EA ([1]; +100 mV, outside-out patch): up to 45%
Amplitude of inward current response compared to response induced by 30-nM EA ([1]; -100 mV, outside-out patch): up to 25%
Concentration giving peak current ([1]; in the presence of 1- and 3-nM Pico145, decreasing at 300 nM and 1 μM): 100 nM
Concentration giving maximum current response ([1]; no Pico145, lower responses at 100 nM): 30 nM
Activation or inhibition of TRPV4 (TRPV4): no activation or inhibition
Activation or inhibition of TRPM2 (TRPM2): no activation or inhibition
